Assay: Human HepG2 cell viability assay in 384 well format
Type: toxicity, cell-based
Parameters: dose 125 nL, time 70.5 hour; cytotoxicity at 70.5 h: concentration not given beside the values
Settings: HepG2 cells, read-out: Inhibition

Row | SMILES | cytotoxicity at 70.5 h [%]
1 | Cc1ccccc1CN(C)C(=O)CCc1nc(-c2nnc[nH]2)no1 | 8.55
2 | CC1CCCCN1C(=O)c1cn(-c2ccc(C(F)(F)F)cn2)nn1 (centres undefined) | -6.25
3 | Cc1cc(NC(=O)c2ccc(N3CCOCC3)c(F)c2)[nH]n1 | -1.35
4 | CCC(NC(=O)c1cccc(N2CCCC2=O)c1)c1ccc(OC)cc1 (centres undefined) | -4.2
5 | Cc1cc(C(=O)N(C)S(C)(=O)=O)ccc1F | 11.2
6 | Cc1cc(C(=O)N(C)S(=O)(=O)C(C)C)ccc1F | -4.29
7 | O=C1CCCCN1CSc1nnnn1-c1ccc(Cl)cc1 | -4.94
8 | CCc1ccc2c(c1)C(CCNC(=O)c1sccc1C)C(=O)N2 (centres undefined) | -3.5
9 | CN(CCCc1ccccc1)C(=O)CCc1nc(-c2nnc[nH]2)no1 | -0.426
10 | CC(C#N)CN(C)Cc1ccc(Cl)c2cccnc12 (centres undefined) | -3.13
11 | Cc1n[nH]cc1CNC(=O)CCCc1cccs1 | -3.35
12 | Cc1ccc(S(=O)(=O)NC(=O)CCc2ccco2)cc1N(C)C | 20.1
13 | Cc1cc(CN2CCN(Cc3cc(C#N)ccc3F)CC2)no1 | 0.144
14 | Cc1cc(CN2CCN(Cc3ccccc3F)CC2)no1 | 6.67
15 | O=C(CSc1nnc(N2CCOCC2)s1)NC(=O)Nc1ccccc1 | -4.91
16 | O=C(Nc1cn[nH]c1)N1CCN(CCSc2ccccc2)CC1 | 1.53
17 | Cc1cc(C2CCCN2C(=O)c2cnn(C)c2)on1 (centres undefined) | 14
18 | COC(=O)c1ccc(C(=O)N2CCc3c(ncn3C3CC3)C2)cc1 | -5.37
19 | O=C(Nc1cccc(F)c1)N1CCC(CO)(Nc2ccccc2)CC1 | -5.91
20 | Cn1cc(-c2nc(C(=O)N3CCCC3c3cnn(C)c3)cs2)cn1 (centres undefined) | -5.1
21 | CS(=O)(=O)c1ccccc1-n1cc(NC(=O)CC2C=CCC2)cn1 (centres undefined) | -6.16
22 | Cc1ccc(C2CCCCCN2C(=O)Nc2cn[nH]c2)o1 (centres undefined) | -6.84
23 | COc1ncccc1C(=O)Nc1cccc(C[S+](C)[O-])c1C (centres undefined) | -6.07
24 | Cc1sc(NC(=O)CN(C)CCOc2cccc(F)c2)c(C)c1C | -2.66

Row | SMILES | cytotoxicity at 70.5 h [%]
25 | CCOc1ccccc1C(=O)Nc1cccc(C[S+](C)[O-])c1C (centres undefined) | 15.1
26 | O=S(=O)(CCOc1ccc(F)cc1)Nc1cnn(CC(F)F)c1 | -6.59
27 | CCC(CC)C(O)CNC(=O)Cc1c[nH]c2ncccc12 (centres undefined) | -4.44
28 | O=C(Cc1c[nH]c2ncccc12)NCC(O)c1ccsc1 (centres undefined) | 0.0548
29 | Cc1ccncc1NS(=O)(=O)c1ccc(Cl)s1 | -3.59
30 | CN(CC(C)(CO)CO)C(=O)Nc1cc(F)cc(F)c1 | 2.39
31 | Cc1cc(F)cc(NC(=O)N(C)CC(C)(CO)CO)c1 | -1.87
32 | N#CCCN(CCC#N)Cc1ccc(Br)c2cccnc12 | 4.54
33 | CC(C)c1nnc(CN(C)Cc2ccccc2-c2ccccc2)o1 | -6.61
34 | O=C(Nc1cnn(Cc2ccccc2)c1)N1CCN(CCO)CC1 | -4.22
35 | CC(NCC1(N(C)C)CCOCC1)c1ccc(Cl)cc1 (centres undefined) | -3.88
36 | CC(=O)N(C)Cc1cccc(NC(=O)c2cnn(C)c2C)c1 | 22
37 | O=C(c1csc(I)c1)N1CCc2c(ncn2C2CC2)C1 | -3.47
38 | CN(C)c1ncccc1C(=O)N1CCc2c(ncn2C2CC2)C1 | -4.54
39 | CN(C)CCN(CC1CCCO1)C(=O)Cc1cn2ccccc2n1 (centres undefined) | 17.3
40 | COc1cc(Cl)c(NC(=O)c2cc3c([nH]c2=O)CCCC3=O)cc1OC | -7.89
41 | CN(C)c1cc(C(=O)Nc2cccnc2N2CCSCC2)ccn1 | -9.49
42 | CC(C)(C)c1ncc(C(=O)NCc2ccccc2CN2CCCC2)s1 | -6.15
43 | O=C(Nc1cccnc1N1CCSCC1)c1ccc2c(c1)CCC2 | -3.24
44 | Cc1nnc2n1CCN(C(=O)C1CCC(n3cccc3)CC1)C2 (centres undefined) | -8.85
45 | Cc1c(C(=O)N2CCOCC2)nnn1-c1ccc2ncccc2c1 | -6.04
46 | CCOCC(=O)Nc1nccn1Cc1ccccc1Cl | 13.6
47 | CC(C)N(C)CC(=O)Nc1nccn1Cc1ccccc1Cl | -2.07
48 | Cc1c(C(=O)N2CCS(=O)(=O)CC2)nnn1-c1ccc2ncccc2c1 | -4.2

Row | SMILES | cytotoxicity at 70.5 h [%]
49 | CCN(CC)S(=O)(=O)CC(=O)N1CCc2ccc(F)cc21 | -2.84
50 | CCN(CC)S(=O)(=O)CC(=O)N1CCc2ccc(Cl)cc21 | -1.78
51 | OCCOc1cc(F)ccc1NCc1cccc(F)c1F | 1.35
52 | O=C(CNC(=O)c1ccoc1)NC(c1ccc(F)cc1)C(F)(F)F (centres undefined) | -3.8
53 | Cc1cc(CN(C2CC2)C(C)C(C)C)no1 (centres undefined) | -2.85
54 | CC(C)N1CCC(CNC(=O)COc2ccc(F)cc2F)C1 (centres undefined) | 4.12
55 | CCN(CC)C(=O)CN(C)C(=O)c1cccn1CCc1ccccc1 | -3.38
56 | CC(C)(C)c1noc(CN2CCCC(CNS(N)(=O)=O)C2)n1 (centres undefined) | -2.1
57 | CN1CCN(C(=O)c2csnn2)c2ccccc21 | 20.8
58 | Cc1nn(-c2ccccc2)c(C)c1CNC(=O)NC1CC(=O)N(C)C1 (centres undefined) | -1.18
59 | CN(CC(=O)N(C)C1CC1)C1CCN(c2ccc(Cl)cc2)CC1 | 24.7
60 | COCCC(C)NCc1ccccc1-n1ccnc1 (centres undefined) | -3.09
61 | CCOCCNC(=O)CCC1CCCO1 (centres undefined) | 35.5
62 | Cc1cc(NC(=O)N2CCN(c3cccs3)CC2)ccc1C(N)=O | 8.16
63 | O=C(NCC1CCOC1)c1cc(-c2ccccc2Cl)[nH]n1 (centres undefined) | -12.9
64 | Cc1ccc(C(=O)N(C)CC(=O)N2CCCC2)c(C)c1 | -16
65 | Cc1cc(N(C)CC2COc3ccccc3O2)nc(C)n1 (centres undefined) | 9.74
66 | O=C1NCCCCC1NC(=O)N1CCc2ccccc21 (centres undefined) | -14.4
67 | COc1ccc2c(c1)CCCN2C(=O)NC1CCCCNC1=O (centres undefined) | 23.6
68 | O=S(=O)(Cc1nc(C2CC2)no1)c1ccccc1F | -11.9
69 | CNS(=O)(=O)c1ccc(CNC(=O)NCc2cc[nH]n2)cc1 | -12.9
70 | O=C1NCCCCC1NC(=O)N1CCCc2cc(F)ccc21 (centres undefined) | -4.74
71 | O=C(NCC1CCOC1)c1cc(-c2cccc(Cl)c2)[nH]n1 (centres undefined) | -17
72 | CC(NC(=O)NC1CCN(Cc2ccncc2)CC1)c1ccc(F)cc1 (centres undefined) | -13.2

Row | SMILES | cytotoxicity at 70.5 h [%]
73 | Cc1noc(CS(=O)(=O)c2cc(F)ccc2F)n1 | -8.49
74 | CCc1nc(CSc2nnc(N)n2C2CC2)no1 | -7.26
75 | COc1ccccc1CNC(=O)C(C)N1CC(n2nc(C)cc2C)C1 (centres undefined) | -1.72
76 | COc1cccc(-c2nc(CNCc3cccnc3)cs2)c1 | -17.2
77 | CN(Cc1nc(CS(C)(=O)=O)no1)c1ccccc1 | -12.6
78 | Cc1ccccc1Cc1nc(CSc2nnc(N)n2C)no1 | -17.8
79 | CC(C)c1noc(C(C)N2CCC(c3nc4ccccc4o3)CC2)n1 (centres undefined) | -18.9
80 | O=C1NCCCN1Cc1nc(-c2ccc(N3CCCCC3)cc2)no1 | -1.73
81 | Cc1ccn(C)c(=O)c1NC(=O)N(C)Cc1cccc(OC(C)C)c1 | 18.1
82 | CN(c1ncc(S(N)(=O)=O)s1)C1CCc2ccccc21 (centres undefined) | -1.27
83 | Cc1cc(C(N)=O)ccc1NC(=O)N1CCN(c2cccs2)CC1 | -12.4
84 | O=C(CCC1CCCO1)NCCCO (centres undefined) | -18.3
85 | CCN(CC)C(=O)CN1CCCC1C(=O)N(C)C (centres undefined) | -11.8
86 | Cc1nn(C)c(C)c1C1COCCN1C(=O)NC1CC1 (centres undefined) | 19.2
87 | CCSc1cc(C(=O)N(C(C)C)C2CC2)ccn1 | -3.36
88 | CCn1cc(CN2CCCN(C(=O)C3(C#N)CCCCC3)CC2)cn1 | 17.8
89 | COc1ccc(C)cc1CCNS(=O)(=O)c1ccc2c(c1)CCC(=O)N2 | -18.5
90 | CCN(CC1COc2ccccc2O1)C(=O)C1=NN(C)C(=O)CC1 (centres undefined) | -2.86
91 | CCC(NS(=O)(=O)N1CCOCC1)c1ccccc1OC (centres undefined) | -2.95
92 | O=C(Cn1nnn(-c2cccs2)c1=O)N(CC1CCOC1)C1CC1 (centres undefined) | -9.03
93 | COCC(C)N(C)C(=O)CCc1c(C)nc2c(C#N)cnn2c1C (centres undefined) | 3.69
94 | Cc1ccc(NCCCNC(=O)NCc2c(C)cc(C)[nH]c2=O)nc1 | -10.4
95 | Cc1cc(C)c(CNC(=O)NCCCNc2ccccn2)c(=O)[nH]1 | 6.35
96 | COc1ccc(C(C)NS(=O)(=O)c2ccc3c(c2)CCC(=O)N3)cc1F (centres undefined) | 12.7

Row | SMILES | cytotoxicity at 70.5 h [%]
97 | Cc1nc2c(C#N)cnn2c(C)c1CCC(=O)N(C)C1CC1 | 8.54
98 | COCCCN(C)S(=O)(=O)c1ccc(Cl)cc1C#N | -14.2
99 | CSCC(C)N(C)S(=O)(=O)c1ccc(Cl)cc1C#N (centres undefined) | -5.66
100 | CCC(CNC(=O)Cc1cc(C)on1)Oc1cccc(F)c1 (centres undefined) | 0.445
101 | CC(C)SCc1cccc(NC(=O)NCCc2nnc[nH]2)c1 | 11.5
102 | CCC(O)CN(Cc1ccccc1)S(=O)(=O)c1cnc(C)s1 (centres undefined) | -9.64
103 | CN(CC1COc2ccccc2O1)C(=O)C1=NN(C)C(=O)CC1 (centres undefined) | 8.57
104 | COCCOc1ncccc1C(=O)N(C)c1ccc(OC)nc1 | -8.37
105 | CCCC(C#N)NC(=O)CCCOc1cccc(C(C)=O)c1 (centres undefined) | 18
106 | CCCN(CC1COc2ccccc2O1)C(=O)C1=NN(C)C(=O)CC1 (centres undefined) | -9.94
107 | COCC(=O)N(CCC(=O)OC)CC1CCCO1 (centres undefined) | -10.3
108 | COc1ccc(CN2CCN(S(=O)(=O)c3cc(C(=O)O)cs3)CC2)cc1 | -18.9
109 | O=C(NCCN1CCOCC1)c1ccn(-c2ccccc2F)n1 | -2.56
110 | O=C(CC1CCN(c2ncnc3cccc(F)c23)CC1)N1CCCC1 | -24.3
111 | COCC(=O)N1CCN(c2ncnc3cccc(F)c23)CC1 | 0.217
112 | O=C(C1CCN(c2ncnc3cccc(F)c23)CC1)N1CCCC1 | 8.28
113 | N#CC1(NC(=O)c2nccc3ccccc23)CCC1 | -8.96
114 | NCC1(c2cccc(C(F)(F)F)c2)CCCC1 | 15.4
115 | CC(NCc1ccc(-c2ccc(Cl)cc2)o1)c1nnc2n1CCC2 (centres undefined) | -4.6
116 | CCc1nc(CCNC(=O)NC2CCC(=O)N(C)C2)sc1C (centres undefined) | -8.41
117 | CCCn1nc2c(cc1=O)CN(Cc1ncc(C(C)(C)C)o1)CC2 | -4.85
118 | CCn1nc2c(cc1=O)CN(Cc1cc(C)on1)CC2 | -3.67
119 | CNc1ccccc1C(=O)N(C)CCc1ccccc1 | -5.46

Reference: ChEMBL document CHEMBL3507680, “University of Dundee, Gates Library screen for HepG2 cell viability”
